Results taken from US20040002119A1, “Method of predicting cell-based assay results using binding profiles” (priority 2002, published 2004).
Entries after “also recorded” stand apart in the source; their conditions may differ. Where two headings read alike, the source gives them in different places. Blank lines part the entries; values can stand above or below the molecule they belong to.

Key:
[1] = molecular target: T1, ERα LBD (Homo sapiens, UniProt P03372); type: binding
T1 sequence (P03372 311-547 limits assumed): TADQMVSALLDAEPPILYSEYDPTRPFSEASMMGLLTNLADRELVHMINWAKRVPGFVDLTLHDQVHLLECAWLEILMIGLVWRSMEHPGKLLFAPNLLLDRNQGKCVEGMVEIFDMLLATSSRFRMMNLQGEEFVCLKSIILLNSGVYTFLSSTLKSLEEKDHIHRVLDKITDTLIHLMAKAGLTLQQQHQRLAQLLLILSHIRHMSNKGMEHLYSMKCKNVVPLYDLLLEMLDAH
From the text: The peptide sequences were synthesized with biotin at one end, and coupled to fluorescently distinct microsphere populations (5.6 μm streptavidin-coated latex microsphere particles). Multiple peptides of the same sequence were coupled to microspheres having the same fluorescent label, creating 46 fluorescently distinct microsphere populations (45 peptides plus no-peptide control). The microspheres populations were then multiplexed (combined). Alternatively, the ERα LBD could be coupled to the fluorescent microspheres.
The Estrogen Receptor a Ligand Binding Domain (ERα LBD) was coupled to the fluorophore Alexa 532 (Molecular Probes, Inc., Eugene, Oreg.), which is suitable for use with 532 nm excitation sources. The excitation and emission spectra of Alexa 532 is intermediate between the green-fluorescent Alexa Fluor 488 dye and the orange-fluorescent Alexa Fluor 546 dye.
The resulting binding of peptide to LBD is detected by flow cytometric analysis as is known in the art (see, e.g. WO 01/75443). In the present example, binding of ERα to a microsphere subset was indicated by the acquisition of orange fluorescence, detected using a LX-100 instrument (Luminex Corporation, Austin, Tex.). The above procedure is repeated for each compound to create a library of Binding Profiles.
Binding Profiles for each of the six phage-identified peptides described above were also generated using the same multiplexed assay as described above.

[2] = tested on: human endometrial cells (Ishikawa cell line); assay: Ishikawa endometrial cell stimulation assay (intrinsic alkaline phosphatase); type: cell-based; settings: absorbance at 405 nm minus blank; FIG. 13
Experimental: The stimulation of human endometrial cells (Ishikawa cell line) was determined by increases in intrinsic alkaline phosphatase activity. […] The % Emax is defined as 100×(spectrophotometric reading at 405 nm with compound-blank)/(spectrophotometric reading at 405 nm estradiol-blank).

[3] = tested on: MCF-7 breast cancer cells; assay: MCF-7 cell proliferation assay ([3H]-thymidine incorporation); type: cell-based, human; settings: CPM, FIG. 11
Experimental: MCF-7 potency=(pEC50 or pIC50)(% cpm max or % cpm min).
Cell proliferation of MCF-7 breast cancer cells was determined by [^3H]-thymidine incorporation. Compounds were tested for their potential to either stimulate MCF-7 proliferation or inhibit proliferation. An EC50 or IC50 was determined for each compound tested.

- RAC3 (671-697) binding to ERα LBD relative to unliganded ERα LBD [1]: decreases
- T1P3 peptide binding to ERα LBD over basal [1]: increased binding of T1P3 over basal
Molecule: 4-OH tamoxifen
- K7P2 peptide binding to ERα LBD over basal [1]: decreased binding of K7P2 over basal and not
- binding of ERα LBD to coactivator, coregulator and corepressor peptides compared to basal (no compound) [1]: reduced the amount of peptide binding compared to basal binding; also recorded: decreases or only slightly increases binding

- K7P2 peptide binding to ERα LBD over basal ([1]; phage-identified peptide K7P2, 1 μM compound, FIG. 9): not
Molecule: COc1ccc2c(c1)OC(C)(C)[C@@H](c1ccccc1)[C@@H]2c1ccc(OCCN2CCCC2)cc1 [levormeloxifene]

Molecule: O=C(c1ccc(OCCN2CCCCC2)cc1)c1c(-c2ccc(O)cc2)sc2cc(O)ccc12 [raloxifene]
- stimulation of intrinsic alkaline phosphatase in Ishikawa cells [2]: very low stimulatory activity
- MCF-7 cell proliferation with increasing compound concentration [3]: cell proliferation decreased
